This note sets out measurements from PubChem BioAssay (NCI).

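Compound exposure: 48 hours, 5 concentrations, 96-well plates. GI50: concentration for 50% inhibition of growth. Definition used: TGI = concentration required for complete inhibition of growth.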 Where only a bound is given, the exact number is not on record here.

Some test systems named below: HL-60(TB) leukemia; NCI-H522 lung; SR leukemia; HCT-116 colon; SK-MEL-28 melanoma; A549 NSCLC; UO-31 renal; NCI-H23 lung; NCI/ADR-RES ovarian; MALME-3M melanoma.
Common to all, as to assay: DTP human tumour cell line panel, 48 h

By GI50 is commonly meant the concentration that inhibits growth by half. In general, TGI refers to the concentration giving total growth inhibition. Low readings indicate more potent growth arrest, high ones less potent growth arrest.

In the case of `CCC(=C/[C@H](C)C/C=C/C(C)=C/[C@@H](C)C(=O)[C@@H](C)[C@H](O)[C@@H](C)CC)/C=C/[C@H]1OC(=O)C=C[C@@H]1C`, the GI50 in the assay on HL-60(TB) leukemia was < 0.01 µM; with NCI-H522 lung, < 0.01 µM; in the assay on SR leukemia it was < 10 nM; with HCT-116 colon it was < 10 nM; in the assay with SK-MEL-28 melanoma it was < 0.01 µM; with A549 NSCLC, < 0.01 µM. Further, the GI50 in the assay with UO-31 renal, with NCI-H23 lung, in the assay with NCI/ADR-RES ovarian and in the assay with MALME-3M melanoma was < 0.01 µM in each case. In addition, the TGI with HL-60(TB) leukemia turned out to be 1.77 µM; with HCT-116 colon, 0.0106 µM; in the assay on SK-MEL-28 melanoma it was 1.26 µM; in the assay with UO-31 renal, 1.87 µM; in the assay on NCI-H23 lung it was 3.36 µM; in the assay on NCI/ADR-RES ovarian, 4.31 µM. The same molecule showed a TGI in the assay with MALME-3M melanoma of 0.175 µM.
In the case of `c1ccc(Sc2ncnc3ccccc23)cc1`, the GI50 is 6.37 µM in the assay on HL-60(TB) leukemia; 7.19 µM with NCI-H522 lung; 4780 nM in the assay on SR leukemia; 10900 nM with HCT-116 colon; 23.7 µM in the assay on SK-MEL-28 melanoma; 18.1 µM with A549 NSCLC. The GI50 with UO-31 renal was 5.07 µM; with NCI-H23 lung, 8.52 µM; with NCI/ADR-RES ovarian it was 11.8 µM; with MALME-3M melanoma, 10.8 µM. Further, the TGI with HL-60(TB) leukemia worked out at 27.9 µM; with NCI-H522 lung, 29.1 µM; in the assay on SR leukemia, 53.1 µM; in the assay on HCT-116 colon, 23.7 µM; in the assay on SK-MEL-28 melanoma, 89.2 µM; in the assay on A549 NSCLC, 68.3 µM. In addition, the TGI with UO-31 renal is 21.1 µM; in the assay on NCI-H23 lung it was 25.7 µM; with NCI/ADR-RES ovarian it was 35 µM; in the assay with MALME-3M melanoma it was 29.8 µM.
For `Nc1ccccc1SC(CC(=O)c1ccccc1)c1cccc([N+](=O)[O-])c1` (configuration not stated), the GI50 was 17.3 µM in the assay on HL-60(TB) leukemia; 15 µM in the assay on NCI-H522 lung; 2550 nM in the assay with SR leukemia; 1960 nM with HCT-116 colon; 16.6 µM with SK-MEL-28 melanoma; 18.6 µM in the assay with A549 NSCLC. Moreover, the GI50 in the assay with UO-31 renal is 3.11 µM; with NCI-H23 lung, 17.6 µM; in the assay with NCI/ADR-RES ovarian, 20.4 µM; with MALME-3M melanoma it was 16.9 µM. The TGI in the assay on HL-60(TB) leukemia came out at 40.1 µM; in the assay on NCI-H522 lung, 29.5 µM; with SR leukemia, 6.46 µM; with HCT-116 colon, 3.97 µM; in the assay on SK-MEL-28 melanoma, 30.3 µM; with A549 NSCLC, 36.7 µM. Moreover, the TGI in the assay with UO-31 renal was determined as 20.5 µM; in the assay on NCI-H23 lung, 32.6 µM; in the assay with NCI/ADR-RES ovarian, 42.8 µM; in the assay on MALME-3M melanoma it was 31.3 µM.
